Measured values taken from paper PMC6133161, “Thiazoles with cyclopropyl fragment as antifungal, anticonvulsant, and anti-Toxoplasma gondii agents: synthesis, toxicity evaluation, and molecular docking study” (Medicinal Chemistry Research, 2018).
≈ marks a conversion by molar mass, not a printed value.

Tests used:
Test in all cases: Broth microdilution MIC/MFC, clinical isolate
Type in all cases: cell-based
C. inconspicua = C. inconspicua clinical strain
Source text: (§1) In the study of antifungal activity of the compounds 3a–3j, 15 clinical strains of different species of yeasts from Candida species, namely C. albicans, C. dubliniensis C. famata, C. inconspicua, C. krusei, C. tropicalis, C. glabrata, C. lambica, C. kefyr, C. lusitaniae, C. parapsilosis, C. guilliermondii, C. lusitaniae, C. pulcherrima and C. sake were also used. These fungi were isolated by the author (from Department of Pharmaceutical Microbiology of Medical University in Lublin, Poland) from different clinical materials, e.g., from upper respiratory tract of hospitalized patients including cancer patients (i.e., with non-small cell lung cancer or hematological malignancies). Some patients were after pre-operative or post-operative chemotherapy (treated with etoposide or cis-platin given in doses according to the standard procedures), patients with chronic hepatitis C (undergoing peginterferon and ribavirin therapy or without antiviral therapy), patients with diabetes, elderly people, aged of 65 years old or older, staying in close population, such as a care centre and people staying outside the home care. The Ethical Committee of the Medical University of Lublin approved the study protocol (No. KE-0254/75/2011). The isolates were identified by standard diagnostic methods—biochemical microtest, e.g., API 20C AUX, ID 32C, API Candida (bioMérieux) on the basis of assimilation of various substrates. All the used microbial cultures were first subcultured on nutrient agar or Sabouraud agar for bacteria and fungi, respectively. The RPMI 1640 with MOPS (for fungi) were inoculated with the suspensions of fungal species. Microbial suspensions were prepared in sterile saline (0.85% NaCl) with an optical density of 0.5 McFarland standard scale (Wiegand et al. [2008]). Samples containing examined compounds were dissolved in dimethyl sulfoxide (DMSO). Furthermore, fungal suspensions were put onto Petri dishes with solid media containing 2 mg/ml of the tested compounds followed incubation under appropriate conditions. The inhibition of microbial growth was judged by comparison with a control culture prepared without any sample tested. Nystatin (Sigma) was used as a reference antifungal compound. Subsequently MIC minimal inhibitory concentration (MIC) of the compounds was examined by the microdilution broth method, using their two-fold dilutions in RPMI 1640 broth with MOPS prepared in 96-well polystyrene plates. Final concentrations of the compounds ranged from 1000 to 0.0038 µg/ml. Microbial suspensions were prepared in sterile saline with an optical density of 0.5 McFarland standard. Next fungal suspension was added per each well containing broth and various concentrations of the examined compounds. After incubation, the MIC was assessed spectrophotometric as the lowest concentration of the samples showing complete fungal growth inhibition. Appropriate DMSO, growth and sterile controls were carried out. The medium with no tested substances was used as a control (Wiegand et al. [2008]). The minimal fungicidal concentration (MFC) are defined as the lowest concentration of the compounds that is required to kill a particular fungal species. MFC was determined by removing the culture using for MIC determinations from each well and spotting onto appropriate agar medium. The plates were incubated. The lowest compounds concentration with no visible growth observed was assessed as a fungicidal concentration. All the experiments were repeated three times and representative data are presented.
(§2) The MFC/MIC ratios were calculated in order to determine fungicidal (MFC/MIC ≤ 4) or fungistatic (MFC/MIC > 4) effect of the tested compounds (O’Donnell et al. [2010]).

C. krusei = C. krusei clinical strain
Source text: as §1, §2

C. guilliermondii = C. guilliermondii clinical strain
Source text: as §1, §2

C. lambica = C. lambica clinical strain
Source text: as §1, §2

C. dubliniensis = C. dubliniensis clinical strain
Source text: as §1, §2

C. famata = C. famata clinical strain
Source text: as §1, §2

C. sake = C. sake clinical strain
Source text: as §1, §2

C. tropicalis = C. tropicalis clinical strain
Source text: as §1, §2

C. parapsilosis = C. parapsilosis clinical strain
Source text: as §1, §2

C. lusitaniae = C. lusitaniae clinical strain
Source text: as §1, §2

C. kefyr = C. kefyr clinical strain
Source text: as §1, §2

C. albicans = C. albicans clinical strain
Source text: as §1, §2

C. pulcherrima = C. pulcherrima clinical strain
Source text: as §1, §2

C. glabrata = C. glabrata clinical strain
Source text: as §1, §2

Structure (SMILES): C[C@@H]1[C@H](O)[C@@H](C)/C=C/C=C/CC/C=C/C=C/C=C/C=C/C(O[C@H]2O[C@H](C)[C@@H](O)[C@H](N)[C@@H]2O)CC2O[C@](O)(CC(O)C(O)CCC(O)CC(O)CC(O)CC(=O)O[C@H]1C)CC(O)C2C(=O)O (stereo partly drawn) [Nystatin, reference compound]
- MFC (C. inconspicua): 0.48 µg/mL (≈ 0.518 µM)
- MFC/MIC (C. inconspicua): 4
- MIC (C. inconspicua): 0.12 µg/mL (≈ 0.13 µM)
- MFC (C. krusei): 0.98 µg/mL (≈ 1.06 µM)
- MFC/MIC (C. krusei): 4
- MIC (C. krusei): 0.24 µg/mL (≈ 0.259 µM)
- MFC (C. guilliermondii): 0.12 µg/mL (≈ 0.13 µM)
- MFC/MIC (C. guilliermondii): 2
- MIC (C. guilliermondii): 0.06 µg/mL (≈ 0.0648 µM)
- MFC (C. lambica): 0.98 µg/mL (≈ 1.06 µM)
- MFC/MIC (C. lambica): 2
- MIC (C. lambica): 0.48 µg/mL (≈ 0.518 µM)
- MFC (C. dubliniensis): 0.12 µg/mL (≈ 0.13 µM)
- MFC/MIC (C. dubliniensis): 1
- MIC (C. dubliniensis): 0.12 µg/mL (≈ 0.13 µM)
- MFC (C. famata): 0.12 µg/mL (≈ 0.13 µM)
- MFC/MIC (C. famata): 2
- MIC (C. famata): 0.06 µg/mL (≈ 0.0648 µM)
- MFC (C. sake): 0.12 µg/mL (≈ 0.13 µM)
- MFC/MIC (C. sake): 2
- MIC (C. sake): 0.06 µg/mL (≈ 0.0648 µM)
- MFC (C. tropicalis): 0.06 µg/mL (≈ 0.0648 µM)
- MFC/MIC (C. tropicalis): 4
- MIC (C. tropicalis): 0.015 µg/mL (≈ 0.0162 µM)
- MFC (C. parapsilosis): 0.48 µg/mL (≈ 0.518 µM)
- MFC/MIC (C. parapsilosis): 4
- MIC (C. parapsilosis): 0.12 µg/mL (≈ 0.13 µM)
- MFC (C. lusitaniae): 0.24 µg/mL (≈ 0.259 µM)
- MFC/MIC (C. lusitaniae): 2
- MIC (C. lusitaniae): 0.12 µg/mL (≈ 0.13 µM)
- MFC (C. kefyr): 0.24 µg/mL (≈ 0.259 µM)
- MFC/MIC (C. kefyr): 2
- MIC (C. kefyr): 0.12 µg/mL (≈ 0.13 µM)
- MFC (C. albicans): 0.24 µg/mL (≈ 0.259 µM)
- MFC/MIC (C. albicans): 1
- MIC (C. albicans): 0.24 µg/mL (≈ 0.259 µM)
- MFC (C. pulcherrima): 0.24 µg/mL (≈ 0.259 µM)
- MFC/MIC (C. pulcherrima): 2
- MIC (C. pulcherrima): 0.12 µg/mL (≈ 0.13 µM)
- MFC (C. glabrata): 0.48 µg/mL (≈ 0.518 µM)
- MFC/MIC (C. glabrata): 1
- MIC (C. glabrata): 0.48 µg/mL (≈ 0.518 µM)
